Measurements from US11026945B2, “Protein kinase RNA-like endoplasmic reticulum kinase (PERK) inhibitors for prevention and/or treatment of lung injury and/or inflammation” (THE TRUSTEES OF THE UNIVERSITY OF PENNSYLVANIA, priority 2016, dated 2021).
Read-outs that look alike come from different tables or passages of the source.

Key:
[1] = test system: AEC-I monolayers; experiment: Stretch-induced cell death, ethidium homodimer staining; format: cell-based, rat; settings: stretched monolayers, 1 μM PI pretreatment
From the text: To assess the effect of ISR inhibition on stretch-induced cell death, dead to live cell ratio was quantified with triple Ethidium homodimer (dead cells)-Calcinein (live cells) and nuclear (DAPI) stain (Thermo Fisher Scientific). Fluorescent light emission from cells was captured with fluorescent microscopy and quantified in the same fashion as described in the “Mechanical stretch activates ISR and cell death in AEC-I” section. N=30 rats were used to obtain data from N=5 biological replicates/condition for each treatment group. Data was expressed as the number of dead cells per total cells as depicted in FIG. 3G. […]
To measure permeability, the silastic membranes were coated with biotinylated fibronectin and cells were cultured on the apical surface. […] Light emission at 488 nm was measured for monolayers using fluorescent microscopy (Nikon TE300, Melville, N.Y.). […] The emitted fluorescence is proportional to the monolayer damage caused by stretch and is detectable by fluorescent microscopy. […] The maximum pixel intensity in the background of unstretched-untreated monolayers was measured and used as a threshold to exclude unstained regions. The percentage of each image area above the threshold intensity was determined and then divided by the value for the unstretched control group to calculate the normalized area percentage (nArea) of each image. […] Data were expressed as ±SEM. […]

[2] = test system: rat model of VILI
Procedure: To establish the feasibility of translating the in vitro findings to in vivo, a rat model of VILI was used. Animals were pretreated via oral gavage with either 30 mg/kg PI or its vehicle for 4 hours prior to the start of the experiment. Rats were ventilated with 20 ml/kg tidal volume via tracheostomy for 4 hours without positive end expiratory pressure (PEEP) or a recruitment maneuver to induce injury. The lung tissue of ventilated animals was compared to spontaneously breathing controls. […] To confirm these findings, immunofluorescence analysis of thin cut sections was performed using a Zeiss LSM 880 laser scanning confocal microscope (FIG. 19).
Groups of animals (Sprague-Drawly rats, 250 to 300 g weight purchased from Charles River Laboratories, N=150)) were pretreated with one time dose of 3, 10 and 30 mg/kg of PI (GSK2606414) or its vehicle (0.1% TWEEN 80 in 0.5% […]) via oral gavage 4 hours before the start of the experiment. Subsequently, animals were randomized in the following conditions: • 1. Non-ventilated controls pretreated with drug vehicle (C/VC). These animals were sacrificed 8 hours post gavage. • 2. Low tidal volume ventilation group pretreated with vehicle (LTV/VC). These animals were anesthetized 4 hours post gavage and ventilated via tracheostomy for 4 hours with 6 ml/kg tidal volume, 3-5 cmH2O PEEP and lungs were recruited with 30 cmH2O pressure of air hourly. Animals were sacrificed at the end of 4 hours ventilation. This group will served as a second control to assess lung injury parameters in an optimized ICU care situation. • 3. High tidal volume ventilation group pretreated with vehicle (HTV/VC). Animals were ventilated with 20 ml/kg tidal volume without PEEP or recruitment maneuver to induce lung injury and sacrificed at the end of mechanical ventilation period. • 4. Controls with PI treatment (C/PI). Animals were sacrificed after 8 hours of PI treatment. • 5. High tidal volume mechanical ventilation with PI treatment (HTV/PI). Animals were sacrificed at the end of mechanical ventilation period. At the end of the experiment, lung tissue, BAL and serum was collected from all animals. To determine the optimal dose of PI in VILI, the following parameters were measured: BAL total protein measurement (BioRad Protein Assay, BioRad, Hercules, Calif.); lung tissue histology with hematoxylin-eosin (H&E) staining for lung injury scoring; BAL total and differential cell count; Serum and BAL cytokine analysis for IL-18 (R&D Systems, Minneapolis, Minn., USA); lung tissue was collected for future RNA and protein expression studies; blood pressure and heart rate recording (Coda Monitor, Kent Scientific, Torrington, Conn.); and/or animal mortality prior to the end of the experiment.
Rats (N=32) received PERK inhibitor GSK 2606414 (PI) or vehicle control (0.1% Tween 80+0.5% hydroxypropyl-methylcellulose (VC)) via oral gavage 4 hours before the start of mechanical ventilation in 2.5 ml volume bolus. Subsequently, animals were randomized to receive mechanical ventilation, or they were let to breathe spontaneously (N=8/group). For the mechanical ventilation protocol, rats were kept under general anesthesia for the entire procedure. Their breathing, cardiac function and neurological responses were continuously monitored to minimize pain and distress. Induction and maintenance anesthesia was performed with inhaled 2-4% isoflurane. If additional anesthesia was necessary to keep the animal in surgical plane at the time of induction, it was given an intraperitoneal injection of a mixture of ketamine (75-100 mg/kg) and xylazine (5-10 mg/kg). To minimize injectable anesthesia and improve analgesia use, the subcutaneous tissue of the tracheostomy site was injected with 1% lidocaine.

[3] = CPI: spontaneously breathing rats, 30 mg/kg four hours prior to sacrifice
[4] = VPI: rats ventilated 4 hours with 20 ml/kg tidal volume, 30 mg/kg four hours prior to ventilation
[5] = ventilated rats, 30 mg/kg PI oral
[6] = ventilated rats, 30 mg/kg oral gavage

In the case of Cn1cc(-c2ccc3c(c2)CCN3C(=O)Cc2cccc(C(F)(F)F)c2)c2c(N)ncnc21 [PI, 1-[5-(4-Amino-7-methyl-7H-pyrrolo[2,3-d]pyrimidin-5-yl)indolin-1-yl]-2-(3-trifluoromethylphenyl)ethanone], the stretch-induced cell death [1] is reported as “decreased”, the Macrophage cell count [2, 3] is reported as 0.77 ± 0.17 ×10^3 cells/ml BAL and the Neutrophil cell count [2, 3] is reported as 0.003 ± 0.003 ×10^3 cells/ml BAL. For the same compound, the Total cell count [2, 3] was 1.44 ± 0.23 ×10^3 cells/ml BAL, the “FITC-labeled albumin permeability index” value ([2]; VPI vs V, 30 mg/kg oral gavage) was “decreased” and the Macrophage cell count [2, 4] was 1.28 ± 0.26 ×10^3 cells/ml BAL. For the same compound, the Neutrophil cell count [2, 4] was 0.03 ± 0.009 ×10^3 cells/ml BAL, the Total cell count [2, 4] was 1.75 ± 0.14 ×10^3 cells/ml BAL and the “dose sufficient to inhibit VILI” value ([2]; dose titration 3, 10 and 30 mg/kg, oral gavage 4 hours before ventilation) was 10 mg/kg. For the same compound, the “alveolocapillary permeability in VILI (FITC-labeled albumin extravasation), effect of increasing dose” value ([2]; dose titration 3-30 mg/kg, experiment partially completed) was “gradual effect on reducing alveolocapillary permeability”, the “immunosuppression (BAL cell count)” value ([2]; spontaneously breathing animals, 30 mg/kg) was “did not result in immunosuppression” and the “Ventilation-induced BAL total protein content” value [2, 5] was “significantly reduced”. The lung injury score [2, 5] was “significantly reduced”, the “IL-18 BAL levels” value [2, 6] was “reduced” and the “serum IL-18 levels” value [2, 6] was “did not affect”.
